The record followed here is patent US9606107B2, “Crk—a novel target for cancer therapy” (priority 2011, dated 2017).

Common to all, as to type: cell-based
In series [1] the test system is HeLa cells. Description: Apoptosis / cell death of transiently transfected HeLa cells by IF time-lapse video microscopy with propidium iodide. An excerpt:
FIGS. 2A-2D illustrate photographically, graphically and in a chart that transient transfection of DN Crk induces cell death in HeLa cells. Specifically, HeLa cells were transiently transfected with wild type CrkI (pCrkI), SH2 DN (pCrkI/R38K), or SH3 DN (pCrkI/W170K) fused to C FP in the absence (FIG. 2A) or presence (FIG. 2B) of carbobenzoxy-valyl-alanyl-aspartyl-[O-methyl], or ZVAD. The tabulated results shown in FIG. 2D, were collected from multiple videos. The time to death was defined as the time of expression of transfected gene (appearance of green) to the time of PI uptake (appearance of yellow) and expressed as the mean+SEM.
We postulated that if modification of Crk by ExoT is responsible for inducing anoikis, DN mutations in CrkI domains might also result in apoptosis, phenocopying the ExoT's cytotoxicity. To investigate this hypothesis, HeLa cells were transfected with mammalian expression vectors harboring CrkI or its SH2 (CrkI/R38K) or SH3 (CrkI/W170K) DN mutant forms, fused at their C-termini to GFP, and assessed apoptosis by IF video microscopy in the presence or absence of Z-VAD, a pancaspase inhibitor that blocks known apoptotic cell deaths. […]
(§1) ExoT inhibits ASCS formation. […] We assessed the proliferation capacity index associated with ExoT- or CrkI apoptotic cells. […]

The subject of series [2] is HeLa cells. In words: ACSC formation, release and signalling in transfected apoptotic HeLa cells (IF time-lapse microscopy).
Text: Specifically, HeLa cells were transiently transfected with CrkI-GFP expression vector. CrkI forms complexes (indicated […] which go through a cytoplasmic bridge from a dying cell (indicated by red arrow) and induce healthy neighbor recipient cells (indicated by yellow arrow) to divide. Six frames (FIGS. 3A-3F) from IF timelapse microscopy are shown.
FIG. 4 graphically illustrates that ACSC formation is an active process. Specifically, the incidence of apoptotic compensatory signaling complex (ACSC) release from CrkI, CrkI-R38K (SH2 DN), and CrkI-VV170K (SH3 DN) transfected HeLa cells is shown in bar chart form.
FIG. 5 graphically illustrates that ACSC formation is regulated differently by SH2 and SH3 domains. Specifically, the number of ACSC complexes per apoptotic CrkI, CrkI (SH2 DN), and CrkI (SH3 DN) transfected HeLa cells was determined and the results are presented in bar chart form.
FIGS. 6A-6C photographically illustrate that the ADPRT domain of ExoT appears to inhibit ACSC. […]
as §1

Series [3] has as its system HeLa cells. Description: Proliferation capacity index of transfected apoptotic cells (mitotic cells in neighbouring cells). Particulars: compared to CrkI-transfected apoptotic cells; within six hours after cell rounding. An excerpt:
FIG. 7 graphically illustrates that ExoT blocks ACSC-induced proliferation in surrounding cells. Specifically, the proliferation capacity index of the CrkI-EGFP or ExoTEGFP transfected apoptotic cells was defined based on the capacity to induce proliferation in the neighboring cells within six hours after cell rounding.
ExoT inhibits ASCS formation. […] If ExoT inhibited ACSC assembly and signaling, it was reasoned that there should be a reduction in the number of mitotic cells surrounding the ExoT-induced apoptotic cells. We assessed the proliferation capacity index associated with ExoT- or CrkI apoptotic cells. […] Without being bound to any particular theory, it is believed that CrkI adaptor protein functions as a scaffold for the ACSC assembly and that PA utilizes ExoT to block this process while inducing apoptosis in its target host.

A further series concerns B16 melanoma cells. Description: Cytotoxicity in B16 melanoma cells by PI staining, immunofluorescent time lapse microscopy. Particulars: infection with ExoT-expressing P. aeruginosa, MOI 10, or transfection with ExoT-EGFP. As for the experimental part: Specifically, FIGS. 8A-8C are photographs of B16 cells infected with Pseudomonas aeruginosa strains expressing ExoT or defective in ExoT (Mock) at a multiplicity of infection (MOI) 10 or treated with 50 μM cisplatinum. Cytotoxicity was determined by measuring propidium iodide (PI) staining using immunofluorescent time lapse microscopy. FIG. 8D graphically illustrates the level of cell death, for the samples of FIGS. 8A-8C as indicated by PI staining intensity in pixels as measured from each frame using NIH Image J software.
B16 cells were infected with Pseudomonas aeruginosa strains expressing ExoT or defective in ExoT (Mock), at multiplicity of infection (MOI) 10 or treated with 50 μM cisplatinum (FIGS. 8A-8C). Cytotoxicity was determined by measuring propidium iodide (PI) staining (red) using immunofluorescent time lapse microscopy. Still images are shown. The level of cell death, indicated by PI staining intensity (pixels), was measured from each frame using NIH Image J software (FIG. 8D). B16 melanoma cells were transiently transfected with pIRES expression vectors, harboring ExoT-EGFP or EGFP alone. Cytotoxicity was determined by PI staining using IF microscopy.

In another series the test system is HeLa-S3 cells. In words: Cytotoxicity of ExoT-expressing PA103 infection in anoikis-resistant HeLa-S3 cells (PI uptake, video microscopy). The note with it: ExoT-expressing PA103 strain, MOI about 10. As for the experimental part:
Anoikis-sensitive (HeLa) or Anoikis-resistant (HeLa S3) cells were infected with the ExoT-expressing PA strain (PA103 AU) at an MOI of ca. 10. Host cell death was assessed by uptake of propidium iodide (PI) by simultaneous time lapse phase and fluorescent video microscopy. Video images were captured every 15 min. Representative frames are shown.
To test this hypothesis, 1×10^5 HeLa and HeLa-S3 cells were infected with ExoT-expressing PA103 strain at MOI of about 10 and assessed apoptosis by immunofluorescent (IF) video microscopy in the presence of propidium iodide (PI) as described.

Series [4] has as its system 4T1 metastatic breast tumor cells. Description: Cytotoxicity in 4T1 metastatic breast tumor cells by PI staining, immunofluorescent timelapse microscopy. As for the experimental part:
Specifically, in FIGS. 9A-9C, 4T1 cells were infected with PA103 strains expressing ExoT or defective in ExoT expression (Mock), or treated with 50 μM cisplatinum (Cisplatin).
Specifically, 4T1 cells were infected with PA103 strains expressing ExoT (ExoT) […] or defective in ExoT expression (Mock) (FIG. 9A), or treated with 50 μM cisplatinum (Cisplatin) (FIG. 9C). Cytotoxicity was determined by propidium iodide (PI) staining using immunofluorescent timelapse microscopy (FIG. 9D).

Peptide text beside a SMILES is read from it. * marks the point of attachment. Cbz = O=C(OCc1ccccc1)*; CH2F = FC*

Regarding ExoT, in the series with HeLa cells [1] (transient transfection with expression vector, IF video microscopy, PI), the “apoptosis (cell death) in transfected HeLa cells” value is given as 100%. In the series with HeLa cells [2] (transfection with ExoT fusion vectors), the “ACSC-like globular complexes in transfected apoptotic HeLa cells” value is on record as “never observed”. Also, the “percentage of mitotic cells surrounding transfected apoptotic HeLa cells” value with HeLa cells [3] is “substantial reduction”. In addition, the “cytotoxicity in B16 melanoma cells” value in the series with B16 melanoma cells is given as “potent cytotoxicity”. Also, the “ExoT-induced cytotoxicity in HeLa-S3 cells” value in the series with HeLa-S3 cells was “resistant”. For the same molecule, the “cell death in 4T1 cells” value in series [4] (infection with PA103 strain expressing ExoT) is on record as “potent inducer of cell death”.

As to `COC(=O)C[C@H](NC(=O)[C@H](C)NC(=O)[C@@H](NC(=O)OCc1ccccc1)C(C)C)C(=O)CF` [Z-VAD, carbobenzoxy-valyl-alanyl-aspartyl-[O-methyl], reference compound] (Cbz-Val-Ala-Asp(OMe)-CH2F), in the series on HeLa cells [1] (treatment with Z-VAD), the “apoptotic PCD” value was “blocked”. The ACSC formation result in the series on HeLa cells [2] (treatment with Z-VAD, all conditions) was “completely blocked”.

`N.N.[Cl][Pt][Cl]` [cisplatin, cisplatinum, reference compound]: the “cell death in 4T1 cells” value in series [4] (50 μM cisplatinum) was “kill 4T1 cells”.
